Measured values taken from article PMC12704303, “Production of RPSL12-TetR fusion and development of two multiplex methods for simultaneous detection of tetracyclines and aminoglycosides in pork” (Food Chemistry: X, 2025).
Converted amounts (≈) assume the structure as drawn.

Columns and labels:
RPSL12-TetR [1] = system: T1, RPSL12-TetR; assay: microplate direct competition chemiluminescence, coated fusion protein, STR-ALP tracer; format: binding, Escherichia coli; details: competition with streptomycin-ALP conjugate (RPSL12 part); blank pork extract; 37 °C, 30 min
T1 construct: gene rpsL; single-chain fusion RPSL12 (372 bp) - linker (45 bp) - TetR (636 bp), total 1053 bp, in pET-32a(+), His-tag, expressed in E. coli host, Ni-NTA from soluble supernatant, about 41 kDa
Source text: microplate direct competition chemiluminescence, coated fusion protein, STR-ALP tracer on RPSL12-TetR

RPSL12-TetR [2] = system: T1, RPSL12-TetR; assay: microplate direct competition chemiluminescence, coated fusion protein, MC-HRP tracer; format: binding, Escherichia coli; details: competition with minocycline-HRP conjugate (TetR part); blank pork extract; 37 °C, 30 min
Source text: microplate direct competition chemiluminescence, coated fusion protein, MC-HRP tracer on RPSL12-TetR

**Q.** Which “IC50” value (RPSL12-TetR [1]) does the source give for `NCC[C@H](O)C(=O)N[C@@H]1C[C@H](N)[C@@H](O[C@H]2O[C@H](CN)[C@@H](O)[C@H](O)[C@H]2O)[C@H](O)[C@H]1O[C@H]1O[C@H](CO)[C@@H](O)[C@H](N)[C@H]1O` [AMK] here?
**A.** 5.1 ng/mL (≈ 8.71 nM)

**Q.** How did the “IC50” value (RPSL12-TetR [2]) turn out when `CN(C)[C@@H]1C(=O)C(C(N)=O)=C(O)[C@@]2(O)C(=O)C3=C(O)c4c(O)ccc(Cl)c4[C@@](C)(O)[C@H]3C[C@@H]12` [CTC] was run?
**A.** 0.0344 ng/mL (≈ 0.0718 nM)

**Q.** How did the “IC50” value (RPSL12-TetR [2]) turn out when `C[C@H]1c2cccc(O)c2C(=O)C2=C(O)[C@]3(O)C(=O)C(C(N)=O)=C(O)[C@@H](N(C)C)[C@@H]3[C@@H](O)[C@@H]21` [DC] was run?
**A.** 0.0395 ng/mL (≈ 0.0889 nM)

**Q.** Which “IC50” value (RPSL12-TetR [2]) does the source give for `CN(C)[C@@H]1C(=O)C(C(N)=O)=C(O)[C@@]2(O)C(=O)C3=C(O)c4c(O)ccc(Cl)c4[C@@H](O)[C@H]3C[C@@H]12` [DMC] here?
**A.** 0.0287 ng/mL (≈ 0.0617 nM)

**Q.** Which “IC50” value (RPSL12-TetR [1]) does the source give for `CCN[C@@H]1C[C@H](N)[C@@H](O[C@H]2O[C@H](CN)CC[C@H]2N)[C@H](O)[C@H]1O[C@H]1OC[C@](C)(O)[C@H](NC)[C@H]1O` [ETM] here?
**A.** 17 ng/mL (≈ 35.6 nM)

**Q.** How did the “IC50” value (RPSL12-TetR [1]) turn out when `CN[C@@H]1[C@@H](O)[C@@H](O[C@@H]2[C@@H](O)[C@H](O[C@H]3O[C@H](CN)[C@@H](O)[C@H](O)[C@H]3O)[C@@H](N)C[C@H]2NC(=O)[C@@H](O)CN)OC[C@]1(C)O` [ISM] was run?
**A.** 3.6 ng/mL (≈ 6.32 nM)

**Q.** For `NC[C@H]1O[C@H](O[C@H]2[C@H](O)[C@@H](O[C@H]3O[C@H](CO)[C@@H](O)[C@H](N)[C@H]3O)[C@H](N)C[C@@H]2N)[C@H](O)[C@@H](O)[C@@H]1O` [KAN], which “IC50” value (RPSL12-TetR [1]) is on record?
**A.** 6.4 ng/mL (≈ 13.2 nM)

**Q.** For `CN(C)[C@@H]1C(O)=C(C(=O)NCNCCCC[C@H](N)C(=O)O)C(=O)[C@@]2(O)C(O)=C3C(=O)c4c(O)cccc4[C@@](C)(O)[C@H]3C[C@@H]12` [LMC], which “IC50” value (RPSL12-TetR [2]) is on record?
**A.** 0.0427 ng/mL (≈ 0.0709 nM)

**Q.** `CN(C)c1ccc(O)c2c1C[C@H]1C[C@H]3[C@H](N(C)C)C(O)=C(C(N)=O)C(=O)[C@@]3(O)C(O)=C1C2=O` [MC] was tested. Which “IC50” value (RPSL12-TetR [2]) did it give?
**A.** 0.0357 ng/mL (≈ 0.078 nM)

**Q.** With `CNC[C@@H]1CC[C@@H](N)[C@@H](O[C@H]2[C@H](O)[C@@H](O[C@H]3OC[C@](C)(O)[C@H](NC)[C@H]3O)[C@H](N)C[C@@H]2N)O1` [MIM] as the compound, how does the “IC50” value (RPSL12-TetR [1]) read?
**A.** 3.8 ng/mL (≈ 8.2 nM)

**Q.** With `C=C1c2cccc(O)c2C(O)=C2C(=O)[C@]3(O)C(O)=C(C(N)=O)C(=O)[C@@H](N(C)C)[C@@H]3[C@@H](O)[C@H]12` [MTC] as the compound, how does the “IC50” value (RPSL12-TetR [2]) read?
**A.** 0.0418 ng/mL (≈ 0.0945 nM)

**Q.** `CCN[C@@H]1C[C@H](N)[C@@H](O[C@H]2OC(CN)=CC[C@H]2N)[C@H](O)[C@H]1O[C@H]1OC[C@](C)(O)[C@H](NC)[C@H]1O` [NTM] was tested. Which “IC50” value (RPSL12-TetR [1]) did it give?
**A.** 16 ng/mL (≈ 33.6 nM)

**Q.** For `CN(C)[C@@H]1C(=O)C(C(N)=O)=C(O)[C@@]2(O)C(=O)C3=C(O)c4c(O)cccc4[C@@](C)(O)[C@H]3[C@H](O)[C@@H]12` [OTC], which “IC50” value (RPSL12-TetR [2]) is on record?
**A.** 0.0402 ng/mL (≈ 0.0873 nM)

**Q.** For `NC[C@@H]1O[C@H](O[C@H]2[C@@H](O)[C@H](O[C@@H]3[C@@H](O)[C@H](N)C[C@H](N)[C@H]3O[C@H]3O[C@H](CO)[C@@H](O)[C@H](O)[C@H]3N)O[C@@H]2CO)[C@H](N)[C@@H](O)[C@@H]1O` [PMM], which “IC50” value (RPSL12-TetR [1]) is on record?
**A.** 5.4 ng/mL (≈ 8.77 nM)

**Q.** Which “IC50” value (RPSL12-TetR [2]) does the source give for `CN(C)[C@@H]1C(=O)C(C(N)=O)=C(O)[C@@]2(O)C(=O)C3=C(O)c4c(O)cccc4C[C@H]3C[C@@H]12` [SC] here?
**A.** 0.0378 ng/mL (≈ 0.0912 nM)

**Q.** For `CN[C@@H]1[C@H](O)[C@H](NC)[C@H]2O[C@@]3(O)C(=O)C[C@@H](C)O[C@H]3O[C@@H]2[C@H]1O` [SPM], which “IC50” value (RPSL12-TetR [1]) is on record?
**A.** 9.8 ng/mL (≈ 29.5 nM)

**Q.** `CN[C@@H]1[C@H](O[C@H]2[C@H](O[C@H]3[C@H](O)[C@@H](O)[C@H](N=C(N)N)[C@@H](O)[C@@H]3N=C(N)N)O[C@@H](C)[C@]2(O)C=O)O[C@@H](CO)[C@H](O)[C@H]1O` [STR] was tested. Which “IC50” value (RPSL12-TetR [1]) did it give?
**A.** 5.1 ng/mL (≈ 8.77 nM)

**Q.** `CN(C)[C@@H]1C(=O)C(C(N)=O)=C(O)[C@@]2(O)C(=O)C3=C(O)c4c(O)cccc4[C@@](C)(O)[C@H]3C[C@@H]12` [TC] was tested. Which “IC50” value (RPSL12-TetR [2]) did it give?
**A.** 0.038 ng/mL (≈ 0.0855 nM)

**Q.** For `CN(C)c1cc(NC(=O)CNC(C)(C)C)c(O)c2c1C[C@H]1C[C@H]3[C@H](N(C)C)C(=O)C(C(N)=O)=C(O)[C@@]3(O)C(=O)C1=C2O` [TIC], which “IC50” value (RPSL12-TetR [2]) is on record?
**A.** 0.0414 ng/mL (≈ 0.0707 nM)
